# Experiments:
# ovarian cancer cells = assay: Nuclear proteins in exosomes from drug-treated ovarian cancer cells (Western blot); format: cell-based, human; conditions: topotecan 10 nM or olaparib 20 μM
# Method: Isolation of exosomes. The isolation method for exosomes that was used in this study followed the standard methods of the International Society of Extracellular Vesicles (Witwer et al., 2013). Cell lines described above were grown in the corresponding medium described above until 60 to 70% confluence was achieved. Cells were then washed twice with phosphate-buffered saline (PBS) and grown in corresponding medium containing 1% exosome-free FBS (EXO-FBS-250A-1, System Biosciences) plus 0.1% gentamicin for 48 hours. For exosome isolation, the harvested medium underwent serial centrifugation. First, the medium was spun down at 500g for 10 min to pellet any floating cells. Next, the supernatant was collected and spun down at 2000g for 30 min to pellet any residual cell debris. The resulting supernatant was then filtered through a 0.22-μm filter (SCGPUO5RE and SLGP033RS, Millipore-Sigma) to remove any remaining large vesicles. After filtration, the medium was spun down at 40,000 rpm for 2 hours at 4° C. in an ultracentrifuge (Optima XE, Beckman Coulter) with a Ti 45 fixed-angle rotor (339160, Beckman Coulter). […] Exosome concentration and quantity were determined using NTA with a NanoSight NS300 instrument (Malvern Panalytical).
# Western blotting. […] Protein concentration was determined using the Micro BCA Protein Assay Kit (23235, Thermo Fisher Scientific) according to the manufacturer's protocol. […]
# [1] = test system: OVCAR-5 and OVCAR-8 cells; assay: MN quantification in ovarian cancer cells treated with genotoxic drugs (IF, Lamin A/C); format: cell-based, human; conditions: topotecan 10 nM or olaparib 20 μM, vs DMSO
# Method: IF experiments and MN quantification. Cells were plated at a density of 5×10^4 cells on sterile, 0.17-mm-thick coverslips (12-548-A, Thermo Fisher Scientific) placed at the bottom of six-well plates. The next day, cells were treated for 24 hours with either vehicle control dimethyl sulfoxide (DMSO; 1:1000 dilution; D2650, Sigma-Aldrich), 20 μM olaparib (O-9201, LC Laboratories), or 10 nM topotecan (T2705-50MG, Sigma-Aldrich). After 24 hours, the cells were washed with PBS and refed with the appropriate cell culture medium to grow for another 48 hours, for a total time of 72 hours after initial plating on the coverslips.
# The drug-treated cells were first washed three times with PBS, fixed with 4% paraformaldehyde (PFA; 50-980-487, Thermo Fisher Scientific) diluted in PBS, and incubated at RT for 15 min with light rocking. […] Last, cells on coverslips were then washed four times with PBS and mounted on slides using ProLong Diamond Antifade Mountant (P36961, Thermo Fisher Scientific) and imaged with a Leica fluorescence microscope (Leica DM4000 M LED; Leica Microsystems) or an Andor Revolution XDi WD Spinning Disk Confocal microscope. For MN quantification, the number of MN in each 40× field was counted using 10 fields per sample. […]
compound,measurement,setting,value
CC[C@@]1(O)C(=O)OCc2c1cc1n(c2=O)Cc2cc3c(CN(C)C)c(O)ccc3nc2-1 [topotecan],population of exosomes containing nuclear proteins,ovarian cancer cells,increased
same,number of MN,[1],increased significantly
